Data on seven compounds can be found in US10792328B2, “Nanocomplexes for delivery of saporin” (Trustees of Tufts College, priority 2013, dated 2020).

In one assay the test system is MDA-MB-231 cancer cells. The assay is described as follows: In vitro protein transfection (saporin delivery), cell viability by Alamar Blue assay. The settings on record: MDA-MB-231 cells, under all four studied conditions. The format is cell-based. The method, then:
Compositions 1-32 were tested for delivery of saporin into cells MDA-MB-231.
The two cells lines were purchased from ATCC (Manassas, Va.) and cultured in Dulbecco's Modified Eagle Medium (“DMEM”) supplemented with 10% Fetal Bovine Serum (“FBS”) and 1% penicillin/streptomycin at 37° C. in the presence of 5% CO2. For the protein transfection assay described below, cells were seeded in 96-well plates at a density of 10,000 cells per well a day prior to transfection.
To evaluate saporin delivery efficiency, lipid-like compound/saporin nanocomplexes prepared in Examples 19-54 were added to MDA-MB-231 cancer cells and incubated at 37° C. for 24 hours. The saporin concentration was 0.1 μg/250 μL in PBS. The same volume of PBS without any lipid-like compound or saporin was used as a control. The cell viability was determined by the Alamar Blue assay after 24 hours of incubation. All transfection studies were performed in quadruplicate.
A general note: Resazurin is reduced to fluorescent resorufin, in cell work by metabolically active cells.

For a further assay, the system named is 4T1-12B breast tumors. The assay is described as follows: In vivo cancer treatment, inhibition of tumor growth. The settings on record: BALB/c mice bearing 4T1-12B breast tumors, tail-vein injection every three days, 5.5 mg/kg lipid-like compound and 330 μg/kg saporin. The method, then:
Composition 33 (i.e., 1-O16B/saporin) and Composition 34 (i.e., 1-O18B/saporin) were tested for in vivo inhibiting tumor growth following the procedure described below. More specifically, BALB/c mice bearing 4T1-12B breast tumors were developed from a 4T1-12B cell suspension in DMEM supplemented with 10% FBS at a concentration of 10^7 cells/ml. An aliquot (100 μl) of the cell suspension was injected into the mammary fat pad of 4-6 week-old female BALB/c mice. The mice were sorted into four groups randomly (n=7 for treatment group, n=5 for control groups) seven days after the injection. The mice were injected through tail-vein every three days. For the treatment group, each mouse was injected with 5.5 mg/kg of 1-O16B or 1-O18B and 330 μg/kg of saporin. Tumor volumes were measured every three days.
PBS without 1-O16B, 1-O18B, and saporin was also injected as a control. Comparative studies were also conducted using saporin in PBS without 1-O16B and 1-O18B.

Consider `CCCCCCCCCCSSCCOC(=O)CCN(C)CCCN(C)CCC(=O)OCCSSCCCCCCCCCC` [Composition 80-O14B], for which the saporin delivery efficiency entry in the assay with MDA-MB-231 cancer cells was “high saporin delivery efficiency”.

For `CCCCCCCCCCCCSSCCOC(=O)CCN(C)CCCN(C)CCC(=O)OCCSSCCCCCCCCCCCC` [Composition 80-O16B], the saporin delivery efficiency entry in the assay with MDA-MB-231 cancer cells was “high saporin delivery efficiency”.

As to `CCCCCCCCCCCCCCCCOC(=O)CCN(C)CCCN(C)CCC(=O)OCCCCCCCCCCCCCCCC` [Composition 80-O16], the saporin delivery efficiency result in the assay with MDA-MB-231 cancer cells is reported as “high saporin delivery efficiency”.

On to `CCCCCCCCCCCCCCSSCCOC(=O)CCN(C)CCCN(C)CCC(=O)OCCSSCCCCCCCCCCCCCC` [Composition 80-O18B], for which, in the assay on MDA-MB-231 cancer cells, the saporin delivery efficiency result was “high saporin delivery efficiency”.

Turning to `CCCCCCCCCCCCCCCCCCOC(=O)CCN(C)CCCN(C)CCC(=O)OCCCCCCCCCCCCCCCCCC` [Composition 80-O18], the saporin delivery efficiency entry in the assay with MDA-MB-231 cancer cells was “high saporin delivery efficiency”.

For `CCCCCCCCCCCCSSCCOC(=O)CCN(CCCN(CCO)CCO)CCC(=O)OCCSSCCCCCCCCCCCC` [Composition 87-O16B], the saporin delivery efficiency result in the assay on MDA-MB-231 cancer cells is reported as “high saporin delivery efficiency”.

For the compound saporin, the results for the tumor size entry in the assay on 4T1-12B breast tumors (Day 16) and with 4T1-12B breast tumors (Day 22) were “more than 120 mm^3” and “more than 250 mm^3”, respectively.
